In ChEMBL document CHEMBL5241069, “A key review on oxadiazole analogs as potential methicillin-resistant Staphylococcus aureus (MRSA) activity: Structure-activity relationship studies” (Eur J Med Chem, 2021):
Converted amounts (≈) assume the structure as drawn.

Experiments:
Staphylococcus aureus [1] = experiment: Antibacterial activity against methicillin resistant Staphylococcus aureus 181 assessed as inhibition of bacterial growth; type: functional
Staphylococcus aureus [2] = experiment: Antibacterial activity against methicillin resistant Staphylococcus aureus 747 assessed as inhibition of bacterial growth; type: functional
Staphylococcus aureus [3] = experiment: Potency index, ratio of cefepime MIC to test compound MIC for antibacterial activity against methicillin resistant Staphylococcus aureus 42 assessed as inhibition of bacterial growth; type: functional
Staphylococcus aureus [4] = experiment: Antibacterial activity against methicillin resistant Staphylococcus aureus 128 assessed as inhibition of bacterial growth; type: functional
Staphylococcus aureus [5] = experiment: Antibacterial activity against methicillin resistant Staphylococcus aureus 42 assessed as inhibition of bacterial growth; type: functional
Staphylococcus aureus [6] = experiment: Antimicrobial activity against methicillin resistant Staphylococcus aureus C4058 assessed as inhibition of cell growth in the presence of oxacillin at 1/8 times of MIC by microdilution method; type: functional
Staphylococcus aureus [7] = experiment: Antimicrobial activity against methicillin resistant Staphylococcus aureus C3787 assessed as inhibition of cell growth in the presence of oxacillin at 1/8 times of MIC by microdilution method; type: functional
Staphylococcus aureus [8] = experiment: Antimicrobial activity against methicillin resistant Staphylococcus aureus C5294 assessed as inhibition of cell growth in the presence of oxacillin at 1/8 times of MIC by microdilution method; type: functional
Staphylococcus aureus [9] = experiment: Antimicrobial activity against methicillin resistant Staphylococcus aureus C3212 assessed as inhibition of cell growth in the presence of oxacillin at 1/8 times of MIC by microdilution method; type: functional
Staphylococcus aureus [10] = experiment: Antimicrobial activity against methicillin resistant Staphylococcus aureus C5294 assessed as inhibition of cell growth in the presence of oxacillin at 1/2 times of MIC by microdilution method; type: functional
Staphylococcus aureus [11] = experiment: Antimicrobial activity against methicillin resistant Staphylococcus aureus C5177 assessed as inhibition of cell growth in the presence of oxacillin at 1/8 times of MIC by microdilution method; type: functional
Staphylococcus aureus [12] = experiment: Antimicrobial activity against methicillin resistant Staphylococcus aureus C4058 assessed as inhibition of cell growth in the presence of oxacillin at 1/4 times of MIC by microdilution method; type: functional
Staphylococcus aureus [13] = experiment: Antimicrobial activity against methicillin resistant Staphylococcus aureus C5269 assessed as inhibition of cell growth in the presence of oxacillin at 1/4 times of MIC by microdilution method; type: functional
Staphylococcus aureus [14] = experiment: Antimicrobial activity against methicillin resistant Staphylococcus aureus C5269 assessed as inhibition of cell growth in the presence of oxacillin at 1/8 times of MIC by microdilution method; type: functional
Staphylococcus aureus [15] = experiment: Antimicrobial activity against methicillin resistant Staphylococcus aureus C3787 assessed as inhibition of cell growth in the presence of oxacillin at 1/4 times of MIC by microdilution method; type: functional
Staphylococcus aureus [16] = experiment: Antimicrobial activity against methicillin resistant Staphylococcus aureus C5382 assessed as inhibition of cell growth in the presence of oxacillin at 1/8 times of MIC by microdilution method; type: functional
Staphylococcus aureus [17] = experiment: Antimicrobial activity against methicillin resistant Staphylococcus aureus C5380 assessed as inhibition of cell growth in the presence of oxacillin at 1/2 times of MIC by microdilution method; type: functional
Staphylococcus aureus [18] = experiment: Antimicrobial activity against methicillin resistant Staphylococcus aureus C5171 assessed as inhibition of cell growth in the presence of oxacillin at 1/8 times of MIC by microdilution method; type: functional
Staphylococcus aureus [19] = experiment: Antimicrobial activity against methicillin resistant Staphylococcus aureus C3787 assessed as inhibition of cell growth in the presence of oxacillin at 1/2 times of MIC by microdilution method; type: functional
Staphylococcus aureus [20] = experiment: Antimicrobial activity against methicillin resistant Staphylococcus aureus C5177 assessed as inhibition of cell growth in the presence of oxacillin at 1/4 times of MIC by microdilution method; type: functional
Staphylococcus aureus [21] = experiment: Antimicrobial activity against methicillin resistant Staphylococcus aureus C5382 assessed as inhibition of cell growth in the presence of oxacillin at 1/2 times of MIC by microdilution method; type: functional
Staphylococcus aureus [22] = experiment: Antimicrobial activity against methicillin resistant Staphylococcus aureus K118 assessed as inhibition of cell growth in the presence of oxacillin at 1/4 times of MIC by microdilution method; type: functional
Staphylococcus aureus [23] = experiment: Antimicrobial activity against methicillin resistant Staphylococcus aureus C3212 assessed as inhibition of cell growth in the presence of oxacillin at 1/2 times of MIC by microdilution method; type: functional
Staphylococcus aureus [24] = experiment: Antimicrobial activity against methicillin resistant Staphylococcus aureus C5282 assessed as inhibition of cell growth in the presence of oxacillin at 1/8 times of MIC by microdilution method; type: functional
Staphylococcus aureus [25] = experiment: Antimicrobial activity against methicillin resistant Staphylococcus aureus C5380 assessed as inhibition of cell growth in the presence of oxacillin at 1/8 times of MIC by microdilution method; type: functional
Staphylococcus aureus [26] = experiment: Antimicrobial activity against methicillin resistant Staphylococcus aureus C5380 assessed as inhibition of cell growth in the presence of oxacillin at 1/4 times of MIC by microdilution method; type: functional
Staphylococcus aureus [27] = experiment: Antimicrobial activity against methicillin resistant Staphylococcus aureus C5294 assessed as inhibition of cell growth in the presence of oxacillin at 1/4 times of MIC by microdilution method; type: functional
Staphylococcus aureus [28] = experiment: Antimicrobial activity against methicillin resistant Staphylococcus aureus K118 assessed as inhibition of cell growth in the presence of oxacillin at 1/8 times of MIC by microdilution method; type: functional
Staphylococcus aureus [29] = experiment: Antimicrobial activity against methicillin resistant Staphylococcus aureus C5171 assessed as inhibition of cell growth in the presence of oxacillin at 1/2 times of MIC by microdilution method; type: functional
Staphylococcus aureus [30] = experiment: Antimicrobial activity against methicillin resistant Staphylococcus aureus C4058 assessed as inhibition of cell growth in the presence of oxacillin at 1/2 times of MIC by microdilution method; type: functional
Staphylococcus aureus [31] = experiment: Antimicrobial activity against methicillin resistant Staphylococcus aureus C5282 assessed as inhibition of cell growth in the presence of oxacillin at 1/4 times of MIC by microdilution method; type: functional
Staphylococcus aureus [32] = experiment: Antimicrobial activity against methicillin resistant Staphylococcus aureus C5177 assessed as inhibition of cell growth in the presence of oxacillin at 1/2 times of MIC by microdilution method; type: functional
Staphylococcus aureus [33] = experiment: Antimicrobial activity against methicillin resistant Staphylococcus aureus C5382 assessed as inhibition of cell growth in the presence of oxacillin at 1/4 times of MIC by microdilution method; type: functional
Staphylococcus aureus [34] = experiment: Antimicrobial activity against methicillin resistant Staphylococcus aureus C3212 assessed as inhibition of cell growth in the presence of oxacillin at 1/4 times of MIC by microdilution method; type: functional
Staphylococcus aureus [35] = experiment: Antimicrobial activity against methicillin resistant Staphylococcus aureus C5171 assessed as inhibition of cell growth in the presence of oxacillin at 1/4 times of MIC by microdilution method; type: functional
Staphylococcus aureus [36] = experiment: Antibacterial activity against Staphylococcus aureus ATCC 27660 assessed as inhibition of bacterial growth by CLSI protocol based microdilution method; type: functional
Staphylococcus aureus [37] = experiment: Antibacterial activity against Staphylococcus aureus NRS100 (COL) assessed as inhibition of bacterial growth by CLSI protocol based microdilution method; type: functional
Staphylococcus aureus [38] = experiment: Antibacterial activity against vancomycin resistant Staphylococcus aureus 1 assessed as inhibition of bacterial growth by CLSI protocol based microdilution method; type: functional
Staphylococcus aureus [39] = experiment: Antibacterial activity against Staphylococcus aureus NRS119 assessed as inhibition of bacterial growth by CLSI protocol based microdilution method; type: functional
Staphylococcus aureus [40] = experiment: Antibacterial activity against Staphylococcus aureus NRS120 assessed as inhibition of bacterial growth by CLSI protocol based microdilution method; type: functional
[41] = Oral bioavailability in ICR mouse at 50 mg/kg; type: ADME, organism-based; conditions: in vivo
Staphylococcus aureus [42] = experiment: Antibacterial activity against Staphylococcus aureus ATCC 29213 assessed as inhibition of bacterial growth by CLSI protocol based microdilution method; type: functional
Staphylococcus aureus [43] = experiment: Antibacterial activity against vancomycin resistant Staphylococcus aureus 2 assessed as inhibition of bacterial growth by CLSI protocol based microdilution method; type: functional
[44] = Elimination half life in ICR mouse at 50 mg/kg, iv; type: ADME, organism-based; conditions: in vivo, read-out: beta t1/2 (converted)

SMILES: O=c1c(Br)cnc2onc(-c3ccc(F)cc3F)n12
- MIC (Staphylococcus aureus [1]): 29.9 µg/mL (≈ 91.1 µM)
- MIC (Staphylococcus aureus [2]): 29.9 µg/mL (≈ 91.1 µM)
- Ratio (Staphylococcus aureus [3]): 3
- MIC (Staphylococcus aureus [4]): 17.6 µg/mL (≈ 53.6 µM)
- MIC (Staphylococcus aureus [5]): 12.4 µg/mL (≈ 37.8 µM)

SMILES: FC(F)(F)c1ccc(Oc2ccc(-c3noc(-c4ccc5[nH]ccc5c4)n3)cc2)cc1
- MIC (Staphylococcus aureus [6]): ≤ 0.03 µg/mL
- MIC (Staphylococcus aureus [7]): ≤ 0.03 µg/mL
- MIC (Staphylococcus aureus [8]): ≤ 0.03 µg/mL
- MIC (Staphylococcus aureus [9]): ≤ 0.03 µg/mL
- MIC (Staphylococcus aureus [10]): ≤ 0.03 µg/mL
- MIC (Staphylococcus aureus [11]): < 0.03 µg/mL
- MIC (Staphylococcus aureus [12]): ≤ 0.03 µg/mL
- MIC (Staphylococcus aureus [13]): ≤ 0.03 µg/mL
- MIC (Staphylococcus aureus [14]): ≤ 0.03 µg/mL
- MIC (Staphylococcus aureus [15]): ≤ 0.03 µg/mL
- MIC (Staphylococcus aureus [16]): ≤ 0.03 µg/mL
- MIC (Staphylococcus aureus [17]): ≤ 0.03 µg/mL
- MIC (Staphylococcus aureus [18]): ≤ 0.03 µg/mL
- MIC (Staphylococcus aureus [19]): ≤ 0.03 µg/mL
- MIC (Staphylococcus aureus [20]): ≤ 0.03 µg/mL
- MIC (Staphylococcus aureus [21]): ≤ 0.03 µg/mL
- MIC (Staphylococcus aureus [22]): ≤ 0.03 µg/mL
- MIC (Staphylococcus aureus [23]): ≤ 0.03 µg/mL
- MIC (Staphylococcus aureus [24]): ≤ 0.03 µg/mL
- MIC (Staphylococcus aureus [25]): ≤ 0.03 µg/mL
- MIC (Staphylococcus aureus [26]): ≤ 0.03 µg/mL
- MIC (Staphylococcus aureus [27]): ≤ 0.03 µg/mL
- MIC (Staphylococcus aureus [28]): ≤ 0.03 µg/mL
- MIC (Staphylococcus aureus [29]): ≤ 0.03 µg/mL
- MIC (Staphylococcus aureus [30]): ≤ 0.03 µg/mL
- MIC (Staphylococcus aureus [31]): ≤ 0.03 µg/mL
- MIC (Staphylococcus aureus [32]): ≤ 0.03 µg/mL
- MIC (Staphylococcus aureus [33]): ≤ 0.03 µg/mL
- MIC (Staphylococcus aureus [34]): ≤ 0.03 µg/mL
- MIC (Staphylococcus aureus [35]): ≤ 0.03 µg/mL

SMILES: Oc1ccc(-c2nc(-c3ccc(Oc4ccc(C(F)(F)F)cc4)cc3)no2)cc1
- MIC (Staphylococcus aureus [36]): 2 µg/mL (≈ 5.02 µM)
- MIC (Staphylococcus aureus [37]): 2 µg/mL (≈ 5.02 µM)
- MIC (Staphylococcus aureus [38]): 2 µg/mL (≈ 5.02 µM)
- MIC (Staphylococcus aureus [39]): 2 µg/mL (≈ 5.02 µM)
- MIC (Staphylococcus aureus [40]): 2 µg/mL (≈ 5.02 µM)
- bioavailability [41]: 100%
- MIC (Staphylococcus aureus [42]): 2 µg/mL (≈ 5.02 µM)
- MIC (Staphylococcus aureus [43]): 2 µg/mL (≈ 5.02 µM)
- half-life [44]: 2400 min
